According to US12195427B2, “MASP-2 inhibitors and methods of use” (priority 2018, dated 2025):

Target: MASP-2 CCP2-SP (Homo sapiens (Human), UniProt O00187)
Assay: MASP-2 co-crystallization, X-ray crystallography and structure analysis (H-bonds, van der Waals contacts);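 on Ligand-pharmacophore element distance, pharmacophore element C2: distance from averaged pharmacophore element to bound ligand; missing value means element absent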;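 on Ligand-pharmacophore element distance, pharmacophore element C3: distance from averaged pharmacophore element to bound ligand; missing value means element absent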;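 on Ligand-pharmacophore element distance, pharmacophore element C4: distance from averaged pharmacophore element to bound ligand; missing value means element absent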;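 on Ligand-pharmacophore element distance, pharmacophore element C5: distance from averaged pharmacophore element to bound ligand; missing value means element absent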
Set-up: van der Waals contact distance, MASP-2 HIS 483 atom CD2 / van der Waals contact distance, MASP-2 HIS 483 atom NE2 / van der Waals contact distance, SER 654 C to compound atom / van der Waals contact distance, SER 654 O to compound atom / van der Waals contact distance, TRP 655 C to compound atom / van der Waals contact distance, MASP-2 GLY 528 atom CA / van der Waals contact distance TRP 655 atom CZ3 / van der Waals contact distance TRP 655 atom N / van der Waals contact distance TRP 655 atom CE3 / van der Waals contact distance GLY 656 atom C / van der Waals contact distance GLY 656 atom CA / van der Waals contact distance GLY 656 atom O / van der Waals contact distance, MASP-2 TYR 607 atom CD1 / van der Waals contact distance, MASP-2 PRO 606 atom O / d(C3,CA1) / d(CA1,N1)2 / d(H4,O1) / d(H4,O2) / d(O1,O2) / d(CA1,O2) / d(CA6,O1) / d(CA6,O2) / d(CA1,C5) / d(O2,H3) / d(N2,C2) / d(CA5,N2) / d(N2,C4) / d(N2,C6) / d(N2,CA3) / d(N2,O3) / d(O4,H2): unit not given beside the values
Procedure, shortened: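 Inhibitor complexes were obtained by soaking crystals of E. coli-expressed human MASP-2 CCP2-SP constructs, then flash-cooling in liquid nitrogen. Structures solved by molecular replacement (1Q3X search model) from synchrotron diffraction; where several poses existed, only one was analyzed, and nonbonded contacts listed can include H-bonds.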

[1] = Table A5-1 pharmacophore: distance between elements, S2/S1 region
[2] = Table A5-2 pharmacophore distance, S3/S4 region
[3] = Table A7-1, between pharmacophore elements of the bound compound
[4] = Table A7-2, between pharmacophore elements of the bound compound
[5] = Table A8-6, nearest protein atom in cell to the left

Sequence of MASP-2 CCP2-SP (O00187 445-686): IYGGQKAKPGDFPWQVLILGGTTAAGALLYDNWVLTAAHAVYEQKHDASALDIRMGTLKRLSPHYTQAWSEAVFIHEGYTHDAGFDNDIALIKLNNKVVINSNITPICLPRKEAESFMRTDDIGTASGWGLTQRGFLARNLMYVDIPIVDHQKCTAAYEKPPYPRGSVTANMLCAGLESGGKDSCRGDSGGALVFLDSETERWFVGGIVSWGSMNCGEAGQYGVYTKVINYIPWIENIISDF
Sequence of MASP-2 CCP2-SP (O00187 364-432 partner): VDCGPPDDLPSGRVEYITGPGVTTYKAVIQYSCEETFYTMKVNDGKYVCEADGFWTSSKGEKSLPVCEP

Structure (SMILES): C[C@H](NC(=O)[C@@H](CCc1ccccc1)NCc1ccc(C(=O)N2CCOCC2)cc1)C(=O)NCc1ccc(C(=N)N)cc1.Cl.Cl [1153_B]
- Ligand-pharmacophore element distance, pharmacophore element C2 (Table A4-1, element C2): 10.14
- Ligand-pharmacophore element distance, pharmacophore element C3 (Table A4-1, element C3): 0
- Ligand-pharmacophore element distance, pharmacophore element C4 (Table A4-1, element C4): 0
- Ligand-pharmacophore element distance, pharmacophore element C5 (Table A4-1, element C5): 0
- Ligand-pharmacophore element distance, pharmacophore element C6 (Table A4-1, element C6): 0
- Ligand-pharmacophore element distance, pharmacophore element C7 (Table A4-1, element C7): 0
- Ligand-pharmacophore element distance, pharmacophore element CA1 (Table A4-1, element CA1): 0.39
- Ligand-pharmacophore element distance, pharmacophore element CA2 (Table A4-1, element CA2): 0.58
- Ligand-pharmacophore element distance, pharmacophore element CA3 (Table A4-1, element CA3): 0
- Ligand-pharmacophore element distance, pharmacophore element CA4 (Table A4-1, element CA4): 0
- Ligand-pharmacophore element distance, pharmacophore element CA5 (Table A4-1, element CA5): 6.17
- Ligand-pharmacophore element distance, pharmacophore element CA6 (Table A4-1, element CA6): 0
- d(CA1,N1) [1]: 3.54
- d(CA1,O1) [1]: 5.51
- d(CA1,O2) [1]: 8.18
- d(H4,O1) [1]: 5.77
- d(H4,O2) [1]: 7.90
- d(O1,O2) [1]: 9.57
- d(CA5,N2) [2]: 3.75
- d(N2,C2) [2]: 8.53
- d(N2,CA2) [2]: 5.06
- d(N2,O3) [2]: 9.72
- d(O2,H3) [2]: 3.10
- d(O2,N2) [2]: 2.99
- a(CA1, O1, O2) (Table A6-1 pharmacophore angle): 144.91
- a(O1, O2, H4) (Table A6-1 pharmacophore angle): 92.62
- A(N1, CA1, O1) a) (Table A6-1 pharmacophore angle, all compounds with protonatable center N1 except Methyl-amino-pyridine): 171.50
- a(O1, O2, H3) (Table A6-2 pharmacophore angle): 25.95
- a(O1, O2, N2) (Table A6-2 pharmacophore angle): 44.76
- a(O2, N2, C2) (Table A6-2 pharmacophore angle): 163.28
- a(O2, N2, CA2) (Table A6-2 pharmacophore angle): 150.51
- a(O2, N2, O3) (Table A6-2 pharmacophore angle): 165.3
- Pharmacophore torsion angle a(H4, O1, O2, H3) [3]: 70.64
- Pharmacophore torsion angle a(H4, O1, O2, N2) [3]: 133.70
- Pharmacophore torsion angle a(N1, CA1, O2, H4) [3]: 56.56
- Pharmacophore torsion angle a(O1, H4, O2, CA1) [3]: 23.08
- Pharmacophore torsion angle a(O1, O2, N2, C2) [3]: −139.94
- Pharmacophore torsion angle a(O1, O2, N2, CA2) [4]: 76.90
- Pharmacophore torsion angle a(O1, O2, N2, CA5) [4]: −161.98
- Pharmacophore torsion angle a(O1, O2, N2, O3) [4]: −144.09
- Pharmacophore protein distance to MET_658 (first MET_658 column) (Table A8-6, 6th residue column, nearest protein atom in cell to the left): 2.53
- Pharmacophore protein distance to MET_658 (second MET_658 column) (Table A8-6, 9th residue column, nearest protein atom in cell to the left): 3.26
- Pharmacophore protein distance to GLY_528 [5]: 3.41
- Pharmacophore protein distance to PHE_529 [5]: 3.23
- Pharmacophore protein distance to PRO_608 [5]: 4.41
- Pharmacophore protein distance to SER_611 [5]: 2.46
- Pharmacophore protein distance to TRP_655 (Table A8-6, pharmacophore elements C6, CA3, O3, H1, nearest protein atom in cell to the left): 3.42
